From patent US20050287232A1, “Skin immune function controlling agents” (priority 1999, published 2005)
Where “and” joins values, the source holds several entries; their conditions need not be identical. Equal values may be shown once. Read-outs that look alike come from different tables or passages of the source.

Tests used:
[1] = tested on: contact hypersensitivity reaction; test: CH reaction under restraint stress with perfume inhalation; assay type: in vivo, mice; conditions: for Swelling: DMMB inhalation, individual animals, right ear minus left ear thickness; for Average (swelling): DMMB, average of 5 values of Table III (1), given there in × 0.01 mm
Protocol: Female C57 BL/6 mice (aged 7-9 weeks) (purchased from Charles River Japan) were used. Each group of five animals were placed in a cage (225×335×140 mm) and kept in a chamber maintained at a temperature of 21-25° C. and a relative humidity of 40-70%. The inhalation of a perfume into the animals was carried out by placing a Petri dish having a diameter of 10 cm in the cage, putting therein a filter paper impregnated with the perfume, and covering the dish with wire netting. (A filter paper impregnated with no perfume was used for a control group.) These animals were laid in a prone position and wrapped in a pliable fine-meshed wire net for 6 hours. This animal experiment gained the approval of the animal experimentation committee of our company following the National Research Council Guidelines.
Mice were sensitized by applying 2,4,6-trinitrochlorobenzene (TNCB) (10 μl of a 3% acetone solution) to the inner and outer surfaces of the left ear of each mouse. After 5 days, a CH reaction was provoked by applying TNCB (5 μl of a 1% acetone solution) to the inner and outer surfaces of the right ear of each mouse. After 24 hours, the swelling was evaluated by measuring the thicknesses of both ears with a micrometer (manufactured by Mitsutoyo) and subtracting the thickness of the left ear from that of the right ear. The exposure of the animals to a perfume was continued over a period of time extending from 24 hours before provocation to the measurement of the swelling. The restraint stress was imposed 24 hours before provocation and repeated immediately after provocation. This experiment was carried out by using the animals in groups of five and using 1,3-dimethoxy-5-methylbenzene (DMMB; purchased from Takasago International Inc.) as the perfume.
The values given in Table III, (1) are values obtained by subtracting the measured thickness of the left ear of each test animal from that of the right ear thereof.

[2] = tested on: Langerhans' cells in the epidermis; test: Staining of Langerhans' cells after stress imposition with perfume inhalation; assay type: in vivo, mice; conditions: DMMB at the time of stress imposition, FIG. 5
Protocol: (§1) Epidermal Langerhans' cells were stained according to the well-known method. In brief, an ear of a mouse was incubated in a 3.8% aqueous solution of ammonium thioisocyanate at 37° C. for 20 minutes to separate the epidermis from the corium. The epidermal sheet was fixed with acetone and incubated in the culture supernatant of mouse hybridoma M5/114.15.2 (American Tissue Type Collection, Rockville, Md., USA) so as to cause the secretion of anti-I-A IgG. Then, the anti-I-A IgG was combined with fluorescein isothiocyanate (FITC) (Sigma, USA)-labeled anti-mouse IgG antibody. Cells positive for the I-A antigen were observed under a confocal laser scanning microscope (MRC600; Bio Rad, USA) and analyzed. Samples were collected from each group of five mice. Three regions of each sample were analyzed by a blind test.
Female C57 BL/6 mice (aged 7-9 weeks) (purchased from Charles River Japan) were used. Each group of five animals were placed in a cage (225×335×140 mm) and kept in a chamber maintained at a temperature of 21-25° C. and a relative humidity of 40-70%. The inhalation of a perfume into the animals was carried out by placing a Petri dish having a diameter of 10 cm in the cage, putting therein a filter paper impregnated with the perfume, and covering the dish with wire netting. […]

[3] = tested on: contact hypersensitivity reaction; test: Contact hypersensitivity (CH) reaction induced and provoked with TNCB; perfume inhalation or topical application; assay type: in vivo, mice
Protocol: Female C57 BL/6 mice (aged 7-9 weeks) were used. Each group of five animals were placed in a cage (225×335×140 mm) and kept in a chamber maintained at a temperature of 21-25° C. and a relative humidity of 40-70%. The inhalation of a perfume into the animals was carried out by placing a Petri dish having a diameter of 10 cm in the cage, putting therein a filter paper impregnated with the perfume, and covering the dish with wire netting. (A filter paper impregnated with no perfume was used for a control group.) This animal experiment followed the National Research Council Guidelines. […] After 5 days (on experimental day 6), a contact hypersensitivity reaction was provoked by applying 5 μl of a 1% acetone solution of the aforesaid antigen to both sides of the right ear of each animal. The contact hypersensitivity (hereinafter referred to as CH) reaction was evaluated by measuring the thickness of the swollen left and right ears on day 7 with a micrometer and calculating the difference between the measured values. In order to examine the effect of perfume inhalation at the time of sensitization, a Petri dish containing a filter paper impregnated with the aforesaid perfume was placed in the cage over a period of time extending from day 0 to day 2. In order to examine the effect of perfume inhalation at the time of immunity provocation, the aforesaid Petri dish was placed in the cage over a period of time extending from day 5 to day 7. In order to examine the effect of the direct application of a perfume to the skin, 50 μl of 0.1% […] or diluent (50% corn oil in acetone) was applied to a region to be sensitized, and the aforesaid antigen was applied thereto after 6 hours. The long-term effect was tested by applying 50 μl of 1% perfume or diluent every day over a period of time extending from day 0 to day 2.

[4] = tested on: Epidermal Langerhans' cells; test: Staining of epidermal Langerhans' cells (I-A antigen) after perfume exposure; assay type: in vivo, mouse
Protocol: as §1, with “Female C57 BL/6 mice (aged 7-9 weeks) were used. Each group of five animals were placed in a cage (225×335×140 mm) and kept in a chamber maintained at a temperature of 21-25° C. and a relative humidity of 40-70%. The inhalation of a perfume into the animals was carried out by placing a Petri dish having a diameter of 10 cm in the cage, putting therein a filter paper impregnated with the perfume, and covering the dish with wire netting. (A filter paper impregnated with no perfume was used for a control group.) This animal experiment followed the National Research Council Guidelines. Epidermal” for “Epidermal”

adenylate cyclase [5] = conditions: olfactory cells of frogs; Sklar et al. 1986; cited from earlier work
adenylate cyclase [6] = conditions: olfactory cells of rats; Boekhoff et al. 1990; cited from earlier work
[7] = Table I, after exposure to citralva, SD in parentheses
[8] = Table II, animals kept in the presence of citralva or lyral/lilial, SD in parentheses

With `COc1cc(C)cc(OC)c1` [DMMB, 1,3-dimethoxy-5-methylbenzene] the Swelling ([1]; Restrained) was 17 × 0.01 mm (2×) and 18 × 0.01 mm and 15 × 0.01 mm and 14 × 0.01 mm, the “Average (swelling)” value ([1]; Restrained) was 16.2 and the Swelling ([1]; Unrestrained) was 17 × 0.01 mm (2×) and 16 × 0.01 mm (2×) and 13 × 0.01 mm. The “Average (swelling)” value ([1]; Unrestrained) was 15.38, the “suppression of the skin immune reaction by stress” value ([1]; animal group having undergone DMMB inhalation, Table III, FIG. 4) was “not observed” and the “number of Langerhans' cells” value ([2]; compared with group without stress imposition) was “of the same order”. For the same compound, the “number of Langerhans' cells” value ([2]; compared with stress imposition alone) was “significantly increased”.
For `CC(C)=CCCC(C)=CC#N` [citralva, 3,7-dimethyl-2,6-octadienenitrile], the “influence of topical application on the CH reaction” value ([3]; direct application to the skin, 50 μl of 0.1% or 1% perfume, FIG. 3) was “neither citralva nor lyral/lilial exerts an influence on the CH reaction”, the “suppression of the induction of the CH reaction” value ([3]; inhalation, exposure for 2 days at the time of induction (day 0 to day 2), FIG. 1 B) was “about 20%” and the “suppression of the provocation of the CH reaction” value ([3]; inhalation, exposure for 2 days at the time of provocation (day 5 to day 7), compared with controls, FIG. 1 A) was “about 50%”. For the same compound, the “effect on CH reaction, citralva compared with lyral/lilial” value ([3]; perfume inhalation, FIG. 2) was “significantly more powerful than that of lyral/lilial”, the “effect on the provocation of a CH reaction” value ([3]; perfume inhalation, FIG. 2) was “suppress the CH reaction” and the Area per cell [4, 7] was 172.0 (78.3) μm^2. For the same compound, the “Intensity of I-A” value [4, 7] was 89.9 (2.9), the “Number of LC” value [4, 7] was 119.8 (15.0) per mm^2 and the Number of dendrites [4, 7] was 4.40 (0.92). The “effect on Langerhans' cells, comparison of perfumes” value ([4]; Table II) was “more powerful effect than lyral/lilial”, the “Intensity of I-A” value [4, 8] was 84.9 (3.1) and the Number of dendrites [4, 8] was 2.56 (0.12). For the same compound, the “change in number of LC” value ([4]; after exposure to citralva, versus control (Table I)) was “significantly decreased”, the “change in area of each I-A-positive cell” value ([4]; exposure to citralva, versus control) was “significantly reduced” and the adenylate cyclase activation (adenylate cyclase [5]) was “activates adenylate cyclase”. The adenylate cyclase activation (adenylate cyclase [6]) was “activates adenylate cyclase”.
